Key:
[1] = system: postjunctional alpha1-adrenoceptors; settings: Brown 1988; cited from earlier work
[2] = system: postjunctional alpha2-adrenoceptors; settings: Brown 1988; cited from earlier work
[3] = Safety study: topical application to entire scalp with BP, HR and EKG holter monitoring; assay type: in vivo, human; settings: topical application across the entire scalp, synephrine at up to 6 g
Experimental: Use of weak acting A1AR agonists or agonists having a low affinity for all other adrenergic receptors, as described herein, can provide methods of treatment and/or prophylaxis that are a substantial improvement over conventional methods of use. Improvements can include enhancements in efficacy and/or safety. For example, safety tests were performed with embodiments of the composition using electrocardiogram (EKG) and blood pressure/heart rate (BP/HR) monitoring. […] Details of the study are described in the examples below.
A study was conducted to determine the safety of a topical solution containing 37% synephrine HCl (the composition of formula 01). 10 mL of the topical solution was applied to the entire scalp and rubbed thoroughly at a base line. An additional 10 mL was applied after 2 hours. Blood pressure (BP), heart rate (HR) and EKG measurements were taken using a wearable holter monitor.
In total, 40 female subjects ages 18-65 in good health were enrolled. 30 of the subjects received the active solution and 10 received the placebo (vehicle only). To evaluate the effect of the composition on systemic hemodynamic parameters, a holter monitor was placed on each subject. At baseline, BP and HR were recorded. BP, HR, and EKG data were collected over a 24-hour period via the holter monitor. […] EKG parameters (e.g., ST segments, arrhythmias, etc.) were normal throughout the 24 hour period.

A1AR [4] = settings: weak A1AR agonist; Brown 1988; cited from earlier work
A1AR [5] = settings: Ma 2010, Hibino 2009; cited from earlier work
[6] = oral form; Stohs 2011; cited from earlier work

Structure (SMILES)	potency of the (+) form relative to the (−) form [1]	potency of the (+) form relative to the (−) form [2]	adverse events (EKG and BP/HR monitoring) [3]	potency less than that of phenylephrine (A1AR [4])	A1AR binding affinity (A1AR [5])	cardiac or hemodynamic changes [6]
CNC[C@@H](O)c1ccc(O)cc1 [S-(+)-synephrine]	one to two orders of magnitude less	one to two orders of magnitude less	–	–	–	–
CNCC(O)c1ccc(O)cc1 (stereo not drawn) [synephrine, p-synephrine]	–	–	No adverse events	approximately 150 fold	low	not been shown to induce significant cardiac or hemodynamic changes
